Experimental data published in patent US20220411414A1, “INHIBITORS FOR THE B-CATENIN/B-CELL LYMPHOMA 9 (BCL9) PROTEIN-PROTEIN INTERACTION” (H. LEE MOFFITT CANCER CENTER AND RESEARCH INSTITUTE, INC., priority 2018, published 2022).

Key:
β-catenin/BCL9 = target: T1, β-catenin/BCL9 (Homo sapiens, UniProt P35222); assay: AlphaScreen competitive inhibition assay, β-catenin/BCL9 PPI; type: binding; conditions: for Ki: AlphaScreen
T1 construct: Full-length β-catenin and (residues 1-781) were cloned into a pET-28b vector carrying a C-terminal 6× histidine; made in house; host or cells: E. coli BL21 DE3
T1 sequence (P35222 1-781): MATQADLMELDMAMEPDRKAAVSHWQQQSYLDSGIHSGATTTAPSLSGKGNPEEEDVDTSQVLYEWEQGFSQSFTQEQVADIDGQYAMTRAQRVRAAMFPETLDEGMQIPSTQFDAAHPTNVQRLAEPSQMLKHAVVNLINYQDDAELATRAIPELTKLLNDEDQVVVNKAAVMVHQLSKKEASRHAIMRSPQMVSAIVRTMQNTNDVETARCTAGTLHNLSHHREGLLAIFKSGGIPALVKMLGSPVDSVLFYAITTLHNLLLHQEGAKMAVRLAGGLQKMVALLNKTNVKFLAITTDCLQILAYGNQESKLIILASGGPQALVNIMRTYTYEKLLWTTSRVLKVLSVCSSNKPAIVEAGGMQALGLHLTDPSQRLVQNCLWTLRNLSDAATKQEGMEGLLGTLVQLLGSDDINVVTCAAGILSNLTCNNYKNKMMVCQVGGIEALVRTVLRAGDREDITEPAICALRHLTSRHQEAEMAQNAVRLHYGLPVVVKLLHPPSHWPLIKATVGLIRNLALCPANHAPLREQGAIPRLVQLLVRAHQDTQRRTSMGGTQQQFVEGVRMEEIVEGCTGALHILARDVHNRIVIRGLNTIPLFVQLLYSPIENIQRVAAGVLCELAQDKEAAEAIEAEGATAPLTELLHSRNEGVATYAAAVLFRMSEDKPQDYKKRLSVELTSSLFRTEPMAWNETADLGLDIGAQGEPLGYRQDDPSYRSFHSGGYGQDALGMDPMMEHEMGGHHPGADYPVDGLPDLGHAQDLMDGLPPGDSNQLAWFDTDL
Text: The biochemical AlphaScreen assay was employed to evaluate the inhibitory potency of these two final products for disruption of the β-catenin/BCL9 PPI.
(§1) BCL9 peptide synthesis and purification. Human BCL9 (residues 350-375), N-terminally biotinylated human BCL9 (residues 350-375), human E-cadherin (residues 824-877), and N-terminally biotinylated human E-cadherin (residues 824-877) were synthesized by InnoPep Inc. (San Diego, Calif., www.innopep.com). All synthesized peptides were purified by HPLC with purity >95%. The structures were validated by LC/MS. The sequences are as follows (Ahx, 6-aminohexanoic acid).
For the β-catenin/BCL9 assay, 5 nM of biotinylated BCL9 and 40 nM of His6-tagged β-catenin were incubated in assay buffer at 4° C. for 30 min. For the β-catenin/E-cadherin assay, 10 nM of biotinylated human E-cadherin, and 40 nM of His6-tagged human β-catenin were added and incubated in assay buffer at 4° C. for 30 min. Different concentrations of the tested peptide or inhibitor were added and incubated in 20 μL assay buffer at 4° C. for another 1.5 h. All of the above assay plates were covered and gently mixed on an orbital shaker. The donor and acceptor beads were then added to the plates to a final concentration of 10 μg/mL in 25 μL assay buffer. The mixture was incubated for 1 h at 4° C. before detection. The IC50 value was determined by nonlinear least-square analysis of GraphPad Prism 5.0. The inhibition constant (Ki) values were derived from the IC50 values using a method reported by Nikolovska-Coleska et al (Nikolovska-Coleska, Z.; Wang, R.; Fang, X.; Pan, H.; Tomita, Y.; Li, P.; Roller, P. P.; Krajewski, K.; Saito, N. G.; Stuckey, J. A.; Wang, S. Development and optimization of a binding assay for the XIAP BIR3 domain using fluorescence polarization, Anal. Biochem. 2004, 332, 261-273.). The assays were conducted under the conditions required by Nikolovska-Coleska et al.'s equation for determining the Ki values. All of the experiments were performed in triplicate. The results were expressed as mean±standard deviation. The inhibitor selectivity for, β-catenin/BCL9 over, β-catenin/E-cahderin interactions was defined as the ratio of the respective Ki value of β-catenin/E-cadherin interactions over that of β-catenin/BCL9 interactions.

β-catenin/E-cadherin = target: T2, β-catenin/E-cadherin (Homo sapiens, UniProt P35222); assay: AlphaScreen selectivity assay, β-catenin/E-cadherin PPI; type: binding; conditions: Table 2, read-out: Ki ± SD β-catenin/E-cadherin
T2 construct: Full-length β-catenin and (residues 1-781) were cloned into a pET-28b vector carrying a C-terminal 6× histidine; made in house; host or cells: E. coli BL21 DE3
T2 sequence (P35222 1-781): T1 sequence (P35222 1-781)
Text: Compounds 4 and 5 were further evaluated with their selectivities for the disruption of β-catenin/BCL9 over β-catenin/E-cadherin interactions using the AlphaScreen selectivity assay (Zhang, M.; Wisniewski, J. A.; Ji, H AlphaScreen selectivity assay for, β-catenin/B-cell lymphoma 9 inhibitors. Anal. Biochen. 2015, 469, 43-53.).
as §1, with “The structures were validated by LC/MS. The sequences are as follows (Ahx, 6-aminohexanoic acid).” left out
For the β-catenin/BCL9 assay, 5 nM of biotinylated BCL9 and 40 nM of His6-tagged β-catenin were incubated in assay buffer at 4° C. for 30 min. […] The IC50 value was determined by nonlinear least-square analysis of GraphPad Prism 5.0. The inhibition constant (Ki) values were derived from the IC50 values using a method reported by Nikolovska-Coleska et al (Nikolovska-Coleska, Z.; Wang, R.; Fang, X.; Pan, H.; Tomita, Y.; Li, P.; Roller, P. P.; Krajewski, K.; Saito, N. G.; Stuckey, J. A.; Wang, S. Development and optimization of a binding assay for the XIAP BIR3 domain using fluorescence polarization, Anal. Biochem. 2004, 332, 261-273.). […] The results were expressed as mean±standard deviation. […]

[1] = tested on: TOPFlash (three wild-type Tcf binding sites) luciferase reporter; assay: Wnt-responsive TOPFlash luciferase reporter assay, SW480; type: cell-based; conditions: Homo sapiens, 24 h treatment, read-out: TOPFlash IC50 ± SD SW480
Method: (§2) The TOPFlash luciferase reporter assay (in which the luciferase reporter has three wild-type Tcf4 binding sites) was performed with 4 and 5. Cell transfection and luciferase assay. FuGENE6 (E269A, Promega) 96 well plate format was used for the transfection of HEK293 and SW480 cells according to the manufacturer's instruction. HEK293 cells were co-transfected with 45 ng of TOPFlash or FOPFlash reporter gene, 135 ng pcDNA3.1-β-catenin, and 20 ng of pCMV-RL normalization reporter gene. SW480 cells were co-transfected with 60 ng of the TOPFlash or FOPFlash reporter gene and 40 ng of pCMV-RL normalization reporter. Cells were cultured in DMEM and 10% FBS at 37° C. for 24 h, and different concentrations of inhibitors or DMSO was added. After 24 h, the luciferase reporter activity was measured using the Dual-Glo system (E2940, Promega). Normalized luciferase activity in response to the treatment with 4 and 5 was compared with that obtained from the cells treated with DMSO. Experiments were performed in triplicate.

[2] = tested on: FOPFlash (three mutant Tcf4 binding sites) luciferase reporter; assay: FOPFlash luciferase reporter assay; type: cell-based; conditions: FIG. 1
Method: as §2, with “Cell” for “The TOPFlash luciferase reporter assay (in which the luciferase reporter has three wild-type Tcf4 binding sites) was performed with 4 and 5. Cell”

A549 = assay: MTs growth inhibition assay, A549 (Wnt-latent); type: cell-based; conditions: Homo sapiens, read-out: MTs IC50 ± SD A549
[3] = tested on: TOPFlash (three wild-type Tcf binding sites) luciferase reporter; assay: Wnt-responsive TOPFlash luciferase reporter assay, β-catenin-activated HEK239; type: cell-based; conditions: 24 h treatment, read-out: TOPFlash IC50 ± SD β-catenin-activated HEK239
Method: as §2

activated β-catenin = target: T3, activated β-catenin (Homo sapiens, UniProt P35222); conditions: literature; cited from earlier work
T3 sequence (P35222 1-781): T1 sequence (P35222 1-781)

[4] = target: T4, β-catenin/BCL9 interaction (Homo sapiens, UniProt P35222); conditions: literature; cited from earlier work
T4 sequence (P35222 1-781): T1 sequence (P35222 1-781)

Wnt target genes = conditions: literature; cited from earlier work

| SMILES | selectivity for β-catenin/BCL9 over β-catenin/E-cadherin PPIs (in words) (β-catenin/BCL9; AlphaScreen biochemical assay) | Ki (β-catenin/BCL9; Table 1, mean ± SD (n = 3)) | Ki (β-catenin/BCL9; Table 2, mean ± SD (n = 3)) | Selectivity BCL9/cadherin (β-catenin/BCL9; ratio of Ki β-catenin/E-cadherin over Ki β-catenin/BCL9) | Ki (β-catenin/E-cadherin) | IC50 [1] | FOPFlash luciferase activity [2] | IC50 (A549) | IC50 [3] | destabilization of activated β-catenin (activated β-catenin) | disruption of the β-catenin/BCL9 interaction [4] | transcription of Wnt target genes / β-catenin-dependent transcription (Wnt target genes) |
| --- | --- | --- | --- | --- | --- | --- | --- | --- | --- | --- | --- | --- |
| Cl.Cl.O=C(Nc1ccc(O[C@@H]2CCNC2)c(-c2cccc(-c3nn[nH]n3)c2)c1)c1ccc(O[C@H]2CCNC2)c(-c2ccc3ccsc3c2)c1 [Compound 5, (R)-3-((5-(3-(benzo[b]thiophen-6-yl)-4-(((S)-pyrrolidin-1-ium-3-yl)oxy)benzamido)-3′-(2H-tetrazol-5-yl)-[1,1′-biphenyl]-2-yl)oxy) pyrrolidin-1-ium chloride] | exceptionally high selectivity | 1.6 ± 0.23 µM | 1.6 ± 0.23 µM | >570 | > 915 µM | 43 ± 3.4 µM | did not inhibit | > 400 µM | 50 ± 5.2 µM |  |  |  |
| CC(C)c1cc2c(c(O)c1O)[C@@]1(C(=O)O)CCCC(C)(C)[C@@H]1CC2 [carnosic acid] |  |  |  |  |  |  |  |  |  | destabilize | can disrupt the β-catenin/BCL9 interaction | inhibit |
